Experimental data from ChEMBL document CHEMBL5291721, “A preclinical secondary pharmacology resource illuminates target-adverse drug reaction associations of marketed drugs” (Nat Commun, 2023).

Columns and labels:
[1] = molecular target: T1, Peroxisome proliferator-activated receptor alpha (Homo sapiens, UniProt Q07869); format: functional
T1 sequence (Q07869 whole entry): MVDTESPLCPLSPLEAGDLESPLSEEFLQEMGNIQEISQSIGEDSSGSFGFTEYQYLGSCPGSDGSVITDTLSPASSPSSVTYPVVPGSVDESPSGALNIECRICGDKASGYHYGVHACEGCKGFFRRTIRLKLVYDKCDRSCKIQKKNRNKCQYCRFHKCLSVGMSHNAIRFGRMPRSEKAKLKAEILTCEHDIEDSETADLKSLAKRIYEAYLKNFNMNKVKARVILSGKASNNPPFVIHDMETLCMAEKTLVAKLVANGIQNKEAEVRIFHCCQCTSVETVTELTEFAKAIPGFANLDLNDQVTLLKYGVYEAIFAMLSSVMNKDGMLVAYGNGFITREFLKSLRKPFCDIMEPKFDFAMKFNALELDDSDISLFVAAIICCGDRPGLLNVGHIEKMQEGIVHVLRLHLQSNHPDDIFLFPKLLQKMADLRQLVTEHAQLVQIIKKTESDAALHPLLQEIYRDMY

[2] = molecular target: Rod cGMP-specific 3',5'-cyclic phosphodiesterase subunit alpha (Homo sapiens, UniProt P16499); format: functional
Sequence of Rod cGMP-specific 3',5'-cyclic phosphodiesterase subunit alpha (P16499 whole entry): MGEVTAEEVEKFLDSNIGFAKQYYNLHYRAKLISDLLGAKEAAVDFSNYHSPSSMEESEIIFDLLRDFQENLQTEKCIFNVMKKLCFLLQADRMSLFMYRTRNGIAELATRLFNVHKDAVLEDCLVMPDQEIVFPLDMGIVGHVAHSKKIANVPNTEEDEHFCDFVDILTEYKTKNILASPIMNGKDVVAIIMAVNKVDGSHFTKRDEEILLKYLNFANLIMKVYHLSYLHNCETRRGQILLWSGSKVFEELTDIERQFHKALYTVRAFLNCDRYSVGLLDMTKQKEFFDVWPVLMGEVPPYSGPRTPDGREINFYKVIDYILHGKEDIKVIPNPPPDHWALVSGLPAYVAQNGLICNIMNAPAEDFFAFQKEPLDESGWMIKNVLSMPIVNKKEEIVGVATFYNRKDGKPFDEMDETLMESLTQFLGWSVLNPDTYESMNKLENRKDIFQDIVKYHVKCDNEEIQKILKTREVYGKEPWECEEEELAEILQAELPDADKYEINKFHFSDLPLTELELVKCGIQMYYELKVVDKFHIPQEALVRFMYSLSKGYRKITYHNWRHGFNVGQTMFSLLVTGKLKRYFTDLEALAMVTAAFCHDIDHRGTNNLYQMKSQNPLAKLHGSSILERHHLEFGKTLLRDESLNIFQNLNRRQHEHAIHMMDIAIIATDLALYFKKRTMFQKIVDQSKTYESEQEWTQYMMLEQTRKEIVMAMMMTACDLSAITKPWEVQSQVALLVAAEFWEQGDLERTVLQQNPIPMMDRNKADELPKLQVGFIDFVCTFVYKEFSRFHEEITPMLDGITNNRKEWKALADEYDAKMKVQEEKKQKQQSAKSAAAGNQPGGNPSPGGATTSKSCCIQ

[3] = molecular target: T2, Muscarinic acetylcholine receptor M5 (Homo sapiens, UniProt P08912)
T2 sequence (P08912 whole entry): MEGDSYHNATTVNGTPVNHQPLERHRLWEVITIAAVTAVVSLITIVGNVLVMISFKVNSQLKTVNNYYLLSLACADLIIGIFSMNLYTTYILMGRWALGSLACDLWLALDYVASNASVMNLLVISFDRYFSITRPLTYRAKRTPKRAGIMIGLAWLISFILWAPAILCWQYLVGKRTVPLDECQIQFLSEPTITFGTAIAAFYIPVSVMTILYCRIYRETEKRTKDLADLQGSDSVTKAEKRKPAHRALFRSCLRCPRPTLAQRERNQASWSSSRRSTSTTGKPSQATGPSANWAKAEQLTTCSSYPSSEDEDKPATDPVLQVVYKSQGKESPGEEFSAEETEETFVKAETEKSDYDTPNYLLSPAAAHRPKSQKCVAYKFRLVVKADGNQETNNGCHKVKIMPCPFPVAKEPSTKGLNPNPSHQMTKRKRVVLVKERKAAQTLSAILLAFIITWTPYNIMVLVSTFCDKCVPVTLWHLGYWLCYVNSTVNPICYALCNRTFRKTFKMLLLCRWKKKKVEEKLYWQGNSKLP

Prothrombin = Prothrombin (Homo sapiens, UniProt P00734); format: functional
Mu-type opioid receptor = Mu-type opioid receptor (Homo sapiens, UniProt P35372)
Sequence of Mu-type opioid receptor (P35372 whole entry): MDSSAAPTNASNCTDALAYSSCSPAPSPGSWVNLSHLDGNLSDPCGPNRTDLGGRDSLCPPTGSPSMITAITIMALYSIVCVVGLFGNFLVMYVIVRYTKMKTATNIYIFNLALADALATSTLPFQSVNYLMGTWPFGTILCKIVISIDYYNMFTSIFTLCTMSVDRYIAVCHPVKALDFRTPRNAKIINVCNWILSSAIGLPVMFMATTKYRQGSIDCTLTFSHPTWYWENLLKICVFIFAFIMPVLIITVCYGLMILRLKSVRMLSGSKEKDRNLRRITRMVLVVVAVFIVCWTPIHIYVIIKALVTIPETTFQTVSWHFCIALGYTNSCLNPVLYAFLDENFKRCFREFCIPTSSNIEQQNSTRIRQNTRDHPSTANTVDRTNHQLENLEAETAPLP

D(3) dopamine receptor = D(3) dopamine receptor (Homo sapiens, UniProt P35462)
Sequence of D(3) dopamine receptor (P35462 whole entry): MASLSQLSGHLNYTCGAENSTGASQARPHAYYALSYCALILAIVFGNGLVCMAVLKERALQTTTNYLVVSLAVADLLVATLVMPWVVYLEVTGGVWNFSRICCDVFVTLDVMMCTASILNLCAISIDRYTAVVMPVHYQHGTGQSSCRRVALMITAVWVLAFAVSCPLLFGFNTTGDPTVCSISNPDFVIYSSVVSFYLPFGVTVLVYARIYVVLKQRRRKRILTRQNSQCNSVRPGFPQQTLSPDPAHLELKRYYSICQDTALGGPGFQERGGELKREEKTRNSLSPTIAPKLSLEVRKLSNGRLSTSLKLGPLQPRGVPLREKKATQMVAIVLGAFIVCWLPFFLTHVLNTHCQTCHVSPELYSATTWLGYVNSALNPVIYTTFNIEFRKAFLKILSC

Progesterone receptor = molecular target: T3, Progesterone receptor (Homo sapiens, UniProt P06401)
T3 sequence (P06401 whole entry): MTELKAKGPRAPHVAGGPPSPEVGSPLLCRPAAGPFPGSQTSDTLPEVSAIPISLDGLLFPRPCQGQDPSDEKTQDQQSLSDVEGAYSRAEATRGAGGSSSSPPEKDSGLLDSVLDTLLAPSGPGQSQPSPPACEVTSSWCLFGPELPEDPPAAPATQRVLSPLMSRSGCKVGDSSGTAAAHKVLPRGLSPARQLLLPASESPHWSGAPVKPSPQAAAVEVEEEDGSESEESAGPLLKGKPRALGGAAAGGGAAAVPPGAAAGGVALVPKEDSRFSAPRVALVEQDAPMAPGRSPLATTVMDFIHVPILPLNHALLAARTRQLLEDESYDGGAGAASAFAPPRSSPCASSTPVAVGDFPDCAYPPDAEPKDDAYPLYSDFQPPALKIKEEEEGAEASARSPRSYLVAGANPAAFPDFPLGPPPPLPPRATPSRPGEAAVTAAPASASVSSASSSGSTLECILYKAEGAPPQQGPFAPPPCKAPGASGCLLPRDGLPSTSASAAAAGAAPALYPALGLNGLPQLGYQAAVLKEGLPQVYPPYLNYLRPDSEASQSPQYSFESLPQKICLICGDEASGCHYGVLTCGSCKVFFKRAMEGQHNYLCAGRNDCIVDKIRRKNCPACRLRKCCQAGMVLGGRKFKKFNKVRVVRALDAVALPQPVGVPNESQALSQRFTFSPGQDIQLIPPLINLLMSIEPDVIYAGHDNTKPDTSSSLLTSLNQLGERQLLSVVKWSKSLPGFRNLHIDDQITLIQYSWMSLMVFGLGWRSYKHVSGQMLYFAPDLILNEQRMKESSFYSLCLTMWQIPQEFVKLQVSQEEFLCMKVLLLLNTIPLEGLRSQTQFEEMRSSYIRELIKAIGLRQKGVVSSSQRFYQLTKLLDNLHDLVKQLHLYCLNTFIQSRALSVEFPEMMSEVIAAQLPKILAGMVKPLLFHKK

Thromboxane A2 receptor = molecular target: T4, Thromboxane A2 receptor (Homo sapiens, UniProt P21731); format: functional, cell-based
T4 sequence (P21731 whole entry): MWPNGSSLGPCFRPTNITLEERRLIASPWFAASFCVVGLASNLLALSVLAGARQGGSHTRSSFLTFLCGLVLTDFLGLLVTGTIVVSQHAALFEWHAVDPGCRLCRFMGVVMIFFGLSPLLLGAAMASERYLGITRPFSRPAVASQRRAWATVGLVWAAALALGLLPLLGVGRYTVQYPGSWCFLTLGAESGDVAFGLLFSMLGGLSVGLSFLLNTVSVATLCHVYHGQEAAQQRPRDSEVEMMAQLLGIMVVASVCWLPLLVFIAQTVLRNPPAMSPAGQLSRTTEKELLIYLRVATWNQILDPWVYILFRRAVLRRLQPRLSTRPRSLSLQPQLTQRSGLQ

[4] = molecular target: T5, Alpha-2A adrenergic receptor (Homo sapiens, UniProt P08913)
T5 sequence (P08913 whole entry): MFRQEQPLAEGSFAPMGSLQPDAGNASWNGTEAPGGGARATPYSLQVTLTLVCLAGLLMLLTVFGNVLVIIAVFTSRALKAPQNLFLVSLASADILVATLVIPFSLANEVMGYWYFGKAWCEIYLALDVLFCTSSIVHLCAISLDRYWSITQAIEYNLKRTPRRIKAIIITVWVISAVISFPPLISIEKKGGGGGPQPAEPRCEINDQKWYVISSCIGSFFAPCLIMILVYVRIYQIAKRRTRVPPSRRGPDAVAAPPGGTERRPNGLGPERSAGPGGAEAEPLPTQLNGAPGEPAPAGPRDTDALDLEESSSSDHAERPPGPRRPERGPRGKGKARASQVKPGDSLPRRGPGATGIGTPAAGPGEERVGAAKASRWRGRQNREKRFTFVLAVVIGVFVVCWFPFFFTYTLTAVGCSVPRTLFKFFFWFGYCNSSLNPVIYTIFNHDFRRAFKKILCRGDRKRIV
Note: assay procedure not described here.

## CC(C)c1c(C(=O)Nc2ccccc2)c(-c2ccccc2)c(-c2ccc(F)cc2)n1CC[C@@H](O)C[C@@H](O)CC(=O)O [ATORVASTATIN]
[1]
  AC50: > 30 µM

## CN(C)C(=O)OC1N=C(c2ccccc2)c2cc(Cl)ccc2N(C)C1=O (stereo unspecified) [CAMAZEPAM]
[2]
  AC50: > 10 µM
[3]
  AC50: > 10 µM

## CC(C)(Oc1ccc(C2CC2(Cl)Cl)cc1)C(=O)O (stereo unspecified) [CIPROFIBRATE]
[1]
  AC50: > 30 µM

## NC(=O)C[S+]([O-])C(c1ccccc1)c1ccccc1 (stereo unspecified) [MODAFINIL]
[2]
  AC50: > 10 µM
[3]
  AC50: > 10 µM

## O=C(O)CCCc1ccccc1 [PHENYLBUTANOIC ACID]
[3]
  AC50: > 10 µM

## Nc1nc2ccc(OC(F)(F)F)cc2s1 [RILUZOLE]
Prothrombin
  AC50: > 30 µM
Mu-type opioid receptor
  AC50: > 30 µM
D(3) dopamine receptor
  AC50: > 30 µM
Progesterone receptor
  AC50: > 30 µM
Thromboxane A2 receptor
  AC50: > 30 µM
[4]
  AC50: > 30 µM

## Cc1ccc(-c2nc3ccc(C)cn3c2CC(=O)N(C)C)cc1 [ZOLPIDEM]
[2]
  AC50: > 10 µM
[3]
  AC50: > 10 µM

## BIVALIRUDIN
Prothrombin
  AC50: 0.0092 µM
Mu-type opioid receptor
  AC50: > 30 µM
D(3) dopamine receptor
  AC50: > 30 µM
Progesterone receptor
  AC50: > 30 µM
Thromboxane A2 receptor
  AC50: > 30 µM
[4]
  AC50: > 30 µM
